Reference: ChEMBL document CHEMBL2034857, “Discovery of the macrocycle (9E)-15-(2-(pyrrolidin-1-yl)ethoxy)-7,12,25-trioxa-19,21,24-triaza-tetracyclo[18.3.1.1(2,5).1(14,18)]hexacosa-1(24),2,4,9,14(26),15,17,20,22-nonaene (SB1578), a potent inhibitor of janus kinase 2/fms-like tyrosine kinase-3 (JAK2/FLT3) for the treatment of rheumatoid …” (J Med Chem, 2012)

Key:
[1] = target: Cyclin-dependent kinase 2 (Homo sapiens, UniProt P24941); experiment: Inhibition of recombinant CDK2 using RbING as substrate after 2 hrs by luminometric assay
[2] = target: Tyrosine-protein kinase JAK1 (Homo sapiens, UniProt P23458); experiment: Inhibition of recombinant JAK1 using poly(Glu,Ala,Tyr) as substrate after 2 hrs by luminometric assay
Chain of Tyrosine-protein kinase JAK1 (P23458 whole entry): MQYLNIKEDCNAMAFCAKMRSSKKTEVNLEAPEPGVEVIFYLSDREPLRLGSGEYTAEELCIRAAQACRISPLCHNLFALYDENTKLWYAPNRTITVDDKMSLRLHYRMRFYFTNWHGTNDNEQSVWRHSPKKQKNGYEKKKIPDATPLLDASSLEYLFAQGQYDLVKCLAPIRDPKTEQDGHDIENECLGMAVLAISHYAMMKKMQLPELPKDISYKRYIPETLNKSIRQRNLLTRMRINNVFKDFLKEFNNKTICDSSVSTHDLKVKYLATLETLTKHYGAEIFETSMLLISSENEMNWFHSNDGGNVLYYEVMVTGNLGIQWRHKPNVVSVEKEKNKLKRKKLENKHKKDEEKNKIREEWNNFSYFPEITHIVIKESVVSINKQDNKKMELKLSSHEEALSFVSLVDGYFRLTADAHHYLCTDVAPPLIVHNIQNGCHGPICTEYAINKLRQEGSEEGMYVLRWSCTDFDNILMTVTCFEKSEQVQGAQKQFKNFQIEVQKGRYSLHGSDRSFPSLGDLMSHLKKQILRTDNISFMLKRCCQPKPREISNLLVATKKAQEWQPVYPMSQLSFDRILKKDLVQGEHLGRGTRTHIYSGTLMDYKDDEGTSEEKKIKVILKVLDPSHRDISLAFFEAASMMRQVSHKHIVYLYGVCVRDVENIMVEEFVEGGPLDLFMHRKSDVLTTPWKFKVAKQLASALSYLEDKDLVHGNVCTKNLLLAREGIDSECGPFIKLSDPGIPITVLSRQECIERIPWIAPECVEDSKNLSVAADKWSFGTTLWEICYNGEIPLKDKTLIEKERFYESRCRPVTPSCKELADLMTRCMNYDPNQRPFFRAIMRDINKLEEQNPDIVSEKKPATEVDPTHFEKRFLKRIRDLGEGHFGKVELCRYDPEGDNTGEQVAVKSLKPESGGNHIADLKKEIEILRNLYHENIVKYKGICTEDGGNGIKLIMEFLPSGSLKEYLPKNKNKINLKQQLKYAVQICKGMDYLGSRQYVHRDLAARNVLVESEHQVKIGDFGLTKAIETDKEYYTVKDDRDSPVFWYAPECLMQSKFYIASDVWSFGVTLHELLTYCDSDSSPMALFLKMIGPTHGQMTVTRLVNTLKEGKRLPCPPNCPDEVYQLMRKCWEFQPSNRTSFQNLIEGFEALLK

[3] = target: Tyrosine-protein kinase JAK2 (Homo sapiens, UniProt O60674); experiment: Inhibition of recombinant JAK2 using poly(Glu,Ala,Tyr) as substrate after 2 hrs by luminometric assay
Chain of Tyrosine-protein kinase JAK2 (O60674 whole entry): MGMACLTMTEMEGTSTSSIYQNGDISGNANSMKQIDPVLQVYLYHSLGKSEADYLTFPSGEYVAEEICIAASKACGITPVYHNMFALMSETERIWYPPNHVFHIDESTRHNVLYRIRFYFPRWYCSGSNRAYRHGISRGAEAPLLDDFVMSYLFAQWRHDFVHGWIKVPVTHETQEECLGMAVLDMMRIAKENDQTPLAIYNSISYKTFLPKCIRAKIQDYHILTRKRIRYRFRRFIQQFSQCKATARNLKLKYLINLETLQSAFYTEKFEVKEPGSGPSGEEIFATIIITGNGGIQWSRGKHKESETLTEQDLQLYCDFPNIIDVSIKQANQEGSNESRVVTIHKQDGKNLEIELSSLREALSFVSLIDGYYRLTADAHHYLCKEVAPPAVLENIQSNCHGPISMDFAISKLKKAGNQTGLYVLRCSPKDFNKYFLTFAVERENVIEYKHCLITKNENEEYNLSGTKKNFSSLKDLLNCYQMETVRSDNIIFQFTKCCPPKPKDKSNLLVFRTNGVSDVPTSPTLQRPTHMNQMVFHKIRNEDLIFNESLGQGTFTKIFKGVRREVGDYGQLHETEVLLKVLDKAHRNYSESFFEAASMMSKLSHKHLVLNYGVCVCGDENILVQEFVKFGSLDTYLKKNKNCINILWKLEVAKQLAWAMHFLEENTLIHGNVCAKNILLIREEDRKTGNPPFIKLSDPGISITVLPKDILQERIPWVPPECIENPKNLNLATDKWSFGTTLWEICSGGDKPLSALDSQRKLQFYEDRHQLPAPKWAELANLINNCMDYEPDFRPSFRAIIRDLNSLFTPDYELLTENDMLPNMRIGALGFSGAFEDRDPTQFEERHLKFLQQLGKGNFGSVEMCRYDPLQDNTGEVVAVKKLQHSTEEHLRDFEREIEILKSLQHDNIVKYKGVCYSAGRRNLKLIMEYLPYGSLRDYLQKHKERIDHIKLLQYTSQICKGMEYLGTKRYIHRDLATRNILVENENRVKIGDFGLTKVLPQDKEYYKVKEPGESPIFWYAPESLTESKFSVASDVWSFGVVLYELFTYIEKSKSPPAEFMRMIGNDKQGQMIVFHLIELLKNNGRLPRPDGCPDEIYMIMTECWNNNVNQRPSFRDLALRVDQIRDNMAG

[4] = target: T1, Tyrosine-protein kinase JAK3 (Homo sapiens, UniProt P52333); experiment: Inhibition of recombinant JAK3 using poly(Glu,Ala,Tyr) as substrate after 2 hrs by luminometric assay
T1 sequence (P52333 whole entry): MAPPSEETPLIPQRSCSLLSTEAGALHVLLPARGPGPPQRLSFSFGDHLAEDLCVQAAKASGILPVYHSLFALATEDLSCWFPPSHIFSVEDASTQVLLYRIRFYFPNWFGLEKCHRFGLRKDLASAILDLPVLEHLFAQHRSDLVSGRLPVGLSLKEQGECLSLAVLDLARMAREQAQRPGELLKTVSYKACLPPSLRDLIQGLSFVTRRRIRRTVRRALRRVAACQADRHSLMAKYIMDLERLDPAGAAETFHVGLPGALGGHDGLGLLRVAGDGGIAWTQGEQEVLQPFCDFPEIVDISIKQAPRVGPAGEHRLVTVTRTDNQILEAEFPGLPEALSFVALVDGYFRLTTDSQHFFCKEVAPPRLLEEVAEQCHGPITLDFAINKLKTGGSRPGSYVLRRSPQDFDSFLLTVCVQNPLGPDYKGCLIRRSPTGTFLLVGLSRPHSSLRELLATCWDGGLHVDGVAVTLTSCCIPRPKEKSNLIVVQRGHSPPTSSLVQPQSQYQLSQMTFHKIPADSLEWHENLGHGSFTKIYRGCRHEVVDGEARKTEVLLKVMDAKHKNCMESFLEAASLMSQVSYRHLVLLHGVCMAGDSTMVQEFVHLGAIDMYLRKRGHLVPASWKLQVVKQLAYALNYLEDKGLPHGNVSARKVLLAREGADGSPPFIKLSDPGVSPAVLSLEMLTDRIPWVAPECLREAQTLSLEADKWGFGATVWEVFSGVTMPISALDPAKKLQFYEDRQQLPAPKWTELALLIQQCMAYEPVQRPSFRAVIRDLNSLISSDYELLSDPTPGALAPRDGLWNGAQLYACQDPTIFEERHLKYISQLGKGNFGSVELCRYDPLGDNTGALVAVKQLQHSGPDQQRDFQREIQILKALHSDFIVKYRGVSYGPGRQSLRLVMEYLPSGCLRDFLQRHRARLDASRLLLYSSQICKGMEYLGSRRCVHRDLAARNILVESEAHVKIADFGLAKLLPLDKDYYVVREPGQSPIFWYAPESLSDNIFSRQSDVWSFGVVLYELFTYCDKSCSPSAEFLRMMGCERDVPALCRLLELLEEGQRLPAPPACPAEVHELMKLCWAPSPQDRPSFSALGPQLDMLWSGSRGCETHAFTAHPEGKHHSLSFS

[5] = target: T2, Receptor-type tyrosine-protein kinase FLT3 (Homo sapiens, UniProt P36888); experiment: Inhibition of recombinant FLT3 using poly(Glu,Tyr) as substrate after 2 hrs by luminometric assay
T2 sequence (P36888 whole entry): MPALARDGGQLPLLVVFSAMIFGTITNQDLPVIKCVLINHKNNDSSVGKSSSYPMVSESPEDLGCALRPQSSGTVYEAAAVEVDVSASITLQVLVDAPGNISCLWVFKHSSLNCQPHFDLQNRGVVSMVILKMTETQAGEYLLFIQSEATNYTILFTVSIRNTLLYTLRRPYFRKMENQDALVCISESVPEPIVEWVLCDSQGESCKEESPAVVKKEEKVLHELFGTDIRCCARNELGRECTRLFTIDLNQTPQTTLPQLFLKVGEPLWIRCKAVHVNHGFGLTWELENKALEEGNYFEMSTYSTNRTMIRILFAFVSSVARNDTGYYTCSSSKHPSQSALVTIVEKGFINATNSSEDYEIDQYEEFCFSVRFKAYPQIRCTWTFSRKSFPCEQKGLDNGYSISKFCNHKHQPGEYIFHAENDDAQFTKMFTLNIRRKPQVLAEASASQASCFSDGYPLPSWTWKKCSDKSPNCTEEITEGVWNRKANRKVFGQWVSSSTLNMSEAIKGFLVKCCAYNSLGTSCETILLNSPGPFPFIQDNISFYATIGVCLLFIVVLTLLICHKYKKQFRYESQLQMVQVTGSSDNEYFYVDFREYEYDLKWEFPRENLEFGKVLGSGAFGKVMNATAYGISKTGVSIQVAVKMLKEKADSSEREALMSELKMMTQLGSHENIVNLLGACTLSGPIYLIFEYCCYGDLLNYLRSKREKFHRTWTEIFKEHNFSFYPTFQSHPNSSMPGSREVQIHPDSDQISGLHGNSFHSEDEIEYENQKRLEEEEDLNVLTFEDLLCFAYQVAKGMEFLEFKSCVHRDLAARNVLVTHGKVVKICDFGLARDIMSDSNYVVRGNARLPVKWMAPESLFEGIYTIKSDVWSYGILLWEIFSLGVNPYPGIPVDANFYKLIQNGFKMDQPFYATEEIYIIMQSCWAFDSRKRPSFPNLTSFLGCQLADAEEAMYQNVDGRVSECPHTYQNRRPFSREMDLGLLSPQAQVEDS

[6] = target: Non-receptor tyrosine-protein kinase TYK2 (Homo sapiens, UniProt P29597); experiment: Inhibition of TYK2
Chain of Non-receptor tyrosine-protein kinase TYK2 (P29597 whole entry): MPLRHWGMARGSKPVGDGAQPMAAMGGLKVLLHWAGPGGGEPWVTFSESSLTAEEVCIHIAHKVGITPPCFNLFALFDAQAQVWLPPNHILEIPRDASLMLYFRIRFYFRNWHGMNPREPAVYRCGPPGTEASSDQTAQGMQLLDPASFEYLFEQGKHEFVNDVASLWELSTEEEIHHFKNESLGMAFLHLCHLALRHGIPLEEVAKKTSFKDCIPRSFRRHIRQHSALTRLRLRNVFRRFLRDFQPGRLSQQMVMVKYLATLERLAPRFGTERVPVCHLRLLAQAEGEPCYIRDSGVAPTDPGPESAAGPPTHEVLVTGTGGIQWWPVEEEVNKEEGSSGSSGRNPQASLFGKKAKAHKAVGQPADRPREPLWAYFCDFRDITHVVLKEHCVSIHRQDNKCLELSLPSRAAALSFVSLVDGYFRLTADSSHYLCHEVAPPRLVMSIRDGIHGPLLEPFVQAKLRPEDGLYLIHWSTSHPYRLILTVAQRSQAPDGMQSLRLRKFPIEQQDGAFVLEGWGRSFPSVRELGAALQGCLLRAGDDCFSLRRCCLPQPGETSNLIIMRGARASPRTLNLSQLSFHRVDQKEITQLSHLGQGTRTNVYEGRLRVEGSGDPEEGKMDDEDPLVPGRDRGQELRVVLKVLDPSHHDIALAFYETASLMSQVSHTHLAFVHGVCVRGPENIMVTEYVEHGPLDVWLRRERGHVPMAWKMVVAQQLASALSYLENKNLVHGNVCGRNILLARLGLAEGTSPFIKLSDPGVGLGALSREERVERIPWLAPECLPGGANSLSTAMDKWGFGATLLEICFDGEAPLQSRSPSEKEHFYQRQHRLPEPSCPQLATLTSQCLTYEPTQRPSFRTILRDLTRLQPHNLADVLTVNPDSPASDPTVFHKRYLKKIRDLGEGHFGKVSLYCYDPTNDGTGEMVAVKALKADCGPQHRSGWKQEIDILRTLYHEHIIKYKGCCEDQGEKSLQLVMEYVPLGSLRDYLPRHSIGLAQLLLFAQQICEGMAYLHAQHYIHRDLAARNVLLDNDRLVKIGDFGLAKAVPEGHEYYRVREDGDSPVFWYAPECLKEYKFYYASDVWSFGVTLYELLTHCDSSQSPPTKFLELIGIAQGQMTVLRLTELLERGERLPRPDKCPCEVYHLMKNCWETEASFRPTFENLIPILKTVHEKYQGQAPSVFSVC

[7] = Kinetic solubility in PBS buffer at pH 7; format: physicochemical; conditions: read-out: Kinetic_solubility
Cytochrome P450 3A4 = Cytochrome P450 3A4 (Homo sapiens, UniProt P08684); experiment: Inhibition of CYP3A4 in human liver microsomes using testosterone as substrate by LC-MS/MS analysis; format: ADME, Microsome
Chain of Cytochrome P450 3A4 (P08684 whole entry): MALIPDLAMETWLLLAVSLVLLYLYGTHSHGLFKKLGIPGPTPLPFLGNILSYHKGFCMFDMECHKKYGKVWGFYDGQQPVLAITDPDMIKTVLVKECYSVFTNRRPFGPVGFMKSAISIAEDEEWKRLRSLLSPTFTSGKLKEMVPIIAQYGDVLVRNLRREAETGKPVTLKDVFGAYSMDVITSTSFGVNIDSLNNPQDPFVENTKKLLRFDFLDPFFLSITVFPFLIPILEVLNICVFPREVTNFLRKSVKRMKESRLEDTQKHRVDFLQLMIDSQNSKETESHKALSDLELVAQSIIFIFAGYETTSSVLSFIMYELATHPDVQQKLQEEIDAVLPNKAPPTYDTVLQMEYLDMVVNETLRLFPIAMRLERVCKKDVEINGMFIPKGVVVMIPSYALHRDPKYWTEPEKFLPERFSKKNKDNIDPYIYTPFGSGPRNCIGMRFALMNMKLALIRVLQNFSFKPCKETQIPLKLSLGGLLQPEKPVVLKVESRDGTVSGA

Cytochrome P450 2D6 = Cytochrome P450 2D6 (Homo sapiens, UniProt P10635); experiment: Inhibition of CYP2D6 in human liver microsomes using dextromethorphan as substrate by LC-MS/MS analysis; format: ADME, Microsome
Chain of Cytochrome P450 2D6 (P10635 whole entry): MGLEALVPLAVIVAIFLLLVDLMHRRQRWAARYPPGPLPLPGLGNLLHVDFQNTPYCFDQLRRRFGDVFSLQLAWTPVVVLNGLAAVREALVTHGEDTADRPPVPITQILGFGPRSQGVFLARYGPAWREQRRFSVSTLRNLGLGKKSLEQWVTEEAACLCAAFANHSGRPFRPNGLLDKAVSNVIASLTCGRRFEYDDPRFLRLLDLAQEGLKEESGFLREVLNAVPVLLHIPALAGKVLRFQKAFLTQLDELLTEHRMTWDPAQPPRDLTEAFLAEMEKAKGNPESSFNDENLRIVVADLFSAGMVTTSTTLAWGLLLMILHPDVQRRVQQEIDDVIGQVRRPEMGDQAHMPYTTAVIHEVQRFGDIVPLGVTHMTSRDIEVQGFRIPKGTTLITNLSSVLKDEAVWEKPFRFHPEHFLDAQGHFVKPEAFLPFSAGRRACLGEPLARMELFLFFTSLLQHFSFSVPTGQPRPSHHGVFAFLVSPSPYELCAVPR

[8] = Half life in human liver microsomes; format: ADME, Microsome
[9] = Half life in mouse liver microsomes; format: ADME, Microsome
[10] = target: Voltage-gated inwardly rectifying potassium channel KCNH2 (Homo sapiens, UniProt Q12809); experiment: Displacement of dofetilide from human ERG
BaF3 = experiment: Antiproliferative activity against mouse BAF3 cells expressing JAK2 V617F mutant after 48 hrs by luciferase reporter gene assay; format: functional; conditions: BaF3, 48 h
HL-60 = experiment: Antiproliferative activity against human HL60 cells expressing FLT3 after 48 hrs by luciferase reporter gene assay; format: functional; conditions: HL-60, 48 h
[11] = Selectivity ratio of IC50 for recombinant CDK2 to IC50 for recombinant JAK2
[12] = Selectivity ratio of IC50 for recombinant JAK1 to IC50 for recombinant JAK2
[13] = Selectivity ratio of IC50 for recombinant JAK3 to IC50 for recombinant JAK2

SMILES | IC50 [1] [nM] | IC50 [2] [nM] | IC50 [3] [nM] | IC50 [4] [nM] | IC50 [5] [nM] | IC50 [6] [nM] | solubility kinetic [7] [µg/mL] | IC50 (Cytochrome P450 3A4) [nM] | IC50 (Cytochrome P450 2D6) [nM] | half-life [8] [min] | half-life [9] [min] | IC50 [10] [nM] | GI50 (BaF3) [nM] | GI50 (HL-60) [nM] | Ratio IC50 [11] | Ratio IC50 [12] | Ratio IC50 [13]
C1=C/COCc2cncc(c2)-c2ccnc(n2)Nc2cccc(c2)COC/1 | 200 | > 10000 | 930 | > 10000 | 560 | 950 | – | – | – | – | – | – | – | – | – | – | –
CN1C/C=C/COCC2CCCN(C2)c2ccnc(n2)Nc2cccc(c2)C1 (mixture of isomers) | > 10000 | > 10000 | > 10000 | > 10000 | > 10000 | > 10000 | – | – | – | – | – | – | – | – | – | – | –
CN1C/C=C/CCn2ccc3ccc(cc32)-c2ccnc(n2)Nc2cccc(c2)C1 (mixture of isomers) | 77 | 1000 | – | > 10000 | 93 | 1500 | – | – | – | – | – | – | – | – | – | – | –
C1=C/Cn2ccc3ccc(cc32)-c2ccnc(n2)Nc2cccc(c2)COC/1 (mixture of isomers) | 83 | 4800 | – | > 10000 | 73 | – | – | – | – | – | – | – | – | – | – | – | –
CN1C/C=C/CCOc2cc(ccn2)-c2ccnc(n2)Nc2cccc(c2)C1 (mixture of isomers) | 22 | 170 | 260 | > 10000 | 310 | 65 | – | – | – | – | – | – | – | – | – | – | –
CN1C/C=C/COCc2cncc(c2)-c2ccnc(n2)Nc2cccc(c2)C1 (mixture of isomers) | 420 | > 10000 | > 10000 | > 10000 | 4800 | 5900 | – | – | – | – | – | – | – | – | – | – | –
CN1C/C=C/COCC2=CC=C(O2)c2ccnc(n2)Nc2cccc(c2)C1 (mixture of isomers) | 320 | 1800 | 820 | > 10000 | 770 | 1500 | – | – | – | – | – | – | – | – | – | – | –
C1=C2COC/C=C/COCc3cccc(c3)Nc3nccc(n3)C(=C1)O2 (mixture of isomers) | 680 | 8000 | 220 | > 10000 | 620 | 670 | – | – | – | – | – | – | – | – | – | – | –
C1=C/Cn2ccc3ccc(cc32)-c2ccnc(n2)Nc2ccc(OCCN3CCCC3)c(c2)COC/1 (mixture of isomers) | 230 | – | 63 | 1140 | 7.9 | – | – | – | – | – | – | – | – | – | – | – | –
Cc1cnc2nc1-c1ccc3ccn(c3c1)C/C=C/COCc1cc(ccc1OCCN1CCCC1)N2 (mixture of isomers) | 2500 | 5100 | 370 | > 10000 | 17 | 440 | – | – | – | – | – | – | – | – | – | – | –
C1=C/COCc2cc(ccc2OCCN2CCCC2)Nc2nccc(n2)-c2cncc(c2)COC/1 (mixture of isomers) | 3200 | > 10000 | 290 | 1000 | 63 | 630 | – | – | – | – | – | – | – | – | – | – | –
C1=C/COCc2cc(ccc2OCCN2CCCC2)Nc2nccc(n2)-c2ccnc(c2)OCC/1 (mixture of isomers) | 270 | 970 | 18 | 1400 | 31 | 30 | – | – | – | – | – | – | – | – | – | – | –
CN1C/C=C/COCC2=CC=C(O2)c2ccnc(n2)Nc2ccc(OCCN3CCCC3)c(c2)C1 (mixture of isomers) | 1600 | 650 | – | > 10000 | 120 | 710 | – | – | – | – | – | – | – | – | – | – | –
CN1C/C=C/COCC2=CC=C(S2)c2ccnc(n2)Nc2ccc(OCCN3CCCC3)c(c2)C1 (mixture of isomers) | 710 | 200 | 90 | > 10000 | 12 | 41 | – | – | – | – | – | – | – | – | – | – | –
COCCOc1ccc2cc1CN(C)C/C=C/COCC1=CC=C(O1)c1ccnc(n1)N2 (mixture of isomers) | 8600 | 3200 | 1100 | > 10000 | 1200 | 590 | – | – | – | – | – | – | – | – | – | – | –
C1=C/COCc2cc(ccc2OCCN2CCCC2)Nc2nccc(n2)-c2cc(co2)COC/1 (mixture of isomers) | > 10000 | 1900 | 110 | 9200 | 180 | 310 | – | – | – | – | – | – | – | – | – | – | –
COCCOc1ccc2cc1CN(C)C/C=C/COCC1=CC=C(S1)c1ccnc(n1)N2 (mixture of isomers) | 330 | 390 | 170 | > 10000 | 22 | 33 | – | – | – | – | – | – | – | – | – | – | –
C1=C2COC/C=C/COCc3cc(ccc3OCCN3CCCC3)Nc3nccc(n3)C(=C1)S2 (mixture of isomers) | 2900 | 420 | 7.3 | 650 | 24 | 32 | 154 | > 10000 | > 10000 | > 60 | 27 | 7200 | 55 | 200 | – | – | –
C1=C/COCc2cc(ccc2OCCN2CCCC2)Nc2nccc(n2)-c2csc(c2)COC/1 (mixture of isomers) | 6800 | 1500 | 17 | 680 | 45 | 47 | 218 | – | – | > 60 | 25 | – | 80 | 640 | 400 | 88 | 40
C1=C/COCc2cc(ccc2OCCN2CCCC2)Nc2nccc(n2)-c2coc(c2)COC/1 (mixture of isomers) | > 10000 | 3000 | 67 | 8800 | 48 | 120 | > 250 | > 10000 | > 10000 | > 60 | 18 | – | – | 710 | > 149 | 45 | 131
C1=C/COCc2cc(ccc2OCCN2CCCC2)Nc2nccc(n2)-c2ccc(s2)COC/1 (mixture of isomers) | – | – | – | – | – | – | – | – | – | – | – | – | – | – | 397 | 57 | 89
